# Source: patent US9572813B2, “Antiviral agent” (SHIONOGI & CO., LTD., priority 2001, dated 2017)
# Counter-ions that a name gives are not always drawn.
row,SMILES,melting point
1,CCNC(=O)c1cc(C(=O)C2=C(O)C(=O)N(C)C2)oc1Cc1ccc(F)cc1,169 to 170 °C
2,CN1CC(C(=O)c2ccoc2Cc2ccc(F)cc2)=C(O)C1=O,171 to 172 °C
3,CN1CC(c2ncc(Cc3ccc(F)cc3)s2)=C(O)C1=O,222 to 224 °C
4,CC(C)N1CC(c2ncc(Cc3ccc(F)cc3)cn2)=C(O)C1=O,155 to 157 °C
5,Cc1nc(C(=O)C2=C(O)C(=O)N(C)C2)c(Cc2ccc(F)cc2)o1,170 °C
6,CC(C)N1CC(C(=O)c2ccc(Cc3ccc(F)cc3C(N)=O)o2)=C(O)C1=O,215 to 218 °C
7,O=C1NCCC(C(=O)c2ccc(Cc3ccc(F)cc3)o2)=C1O,166 to 168 °C
8,Cc1nc(-c2oc3cccc(OCc4ccc(F)cc4)c3c(=O)c2O)n[nH]1,289 to 292 °C
9,Cn1c(C(=O)c2ccc(Cc3ccc(F)cc3)o2)c(O)c(=O)n1C,110 to 111 °C
10,Cc1oc(C(=O)C2=C(O)C(=O)N(C)C2)c(Cc2ccc(F)cc2)c1C,202 to 204 °C
11,O=c1c(O)c(-c2ncccn2)oc2cccc(OCc3ccc(F)cc3)c12,252 to 254 °C
12,Cc1cc(Cc2ccc(F)cc2)c(C(=O)C2=C(O)C(=O)N(C)C2)o1,154 to 156 °C
13,CN(C)C(=O)c1ccc(OCc2ccc(F)cc2)c2c(=O)c(O)c(-c3ncnn3C)oc12,246 to 247 °C
14,CN1CC(c2ccc(Oc3ccccc3)cn2)=C(O)C1=O,200 to 202 °C
15,CC(C)N1CC(c2ncc(CCc3ccc(F)cc3)s2)=C(O)C1=O,208 to 210 °C
16,CC(C)N1CC(c2ncnc(OCc3ccc(F)cc3)n2)=C(O)C1=O,105 to 106 °C
17,CC(C)N1CC(c2ccc(Oc3ccc(F)cc3)cn2)=C(O)C1=O,178 to 179 °C
18,CCN1CC(C(=O)c2occc2Cc2ccc(F)cc2)=C(O)C1=O,167 °C
19,CN1CC(c2cnc(Cc3ccc(F)cc3)cn2)=C(O)C1=O,223 to 225 °C
20,COCc1cc(=O)c(O)c(C(=O)c2ccc(Cc3ccc(F)cc3)o2)o1,147 to 148 °C
21,COc1ccc(CN2CC(c3ccc(Cc4ccc(F)cc4)cn3)=C(O)C2=O)cc1,164 to 166 °C
22,CN1CC(c2ncc(Cc3ccc(F)cc3)cn2)=C(O)C1=O,163 to 165 °C
23,CN1CC(c2ncnc(OCc3ccc(F)cc3)n2)=C(O)C1=O,169 to 171 °C
24,O=c1c(O)c(-c2ncn(Cc3ccc(F)cc3)n2)oc2ccccc12,260 to 262 °C

row,SMILES,melting point
1,Cn1ncnc1-c1oc2cc(C(N)=O)cc(OCc3ccc(F)cc3)c2c(=O)c1O,257 to 258 °C
2,CC(C)N1CC(c2cnc(Oc3ccccc3)cn2)=C(O)C1=O,216 to 217 °C
3,Cn1ncnc1-c1oc2cccc(CCc3ccc(F)cc3)c2c(=O)c1O,192 to 193 °C
4,COc1cc(F)ccc1Cc1ccc(C(=O)C2=C(O)C(=O)N(C)C2)o1,134 to 135 °C
5,CCN1CC(C(=O)c2oc(S(C)(=O)=O)cc2Cc2ccc(F)cc2)=C(O)C1=O,154 to 157 °C
6,O=C(c1ccc(Cc2ccc(F)cc2)o1)c1oc2ccccc2c(=O)c1O,226 to 227 °C
7,O=C(C1=C(O)C(=O)N(Cc2ccccc2)C1)c1ccc(Cc2ccc(F)cc2)o1,129 to 130 °C
8,CC(C)N1CC(C(=O)c2oc(C(C)(C)C)cc2Cc2ccc(F)cc2)=C(O)C1=O,146 to 147 °C
9,CN1CC(c2nccc(OCc3ccc(F)cc3)n2)=C(O)C1=O,227 to 230 °C
10,CN1CC(C(=O)c2oc(C3CCS(=O)(=O)CC3)cc2Cc2ccc(F)cc2)=C(O)C1=O,200 to 203 °C
11,C=CCN1CC(C(=O)c2ccc(Cc3ccc(F)cc3)o2)=C(O)C1=O,95 to 96.5 °C
12,CCC(O)CN1CC(C(=O)c2ccc(Cc3ccc(F)cc3)o2)=C(O)C1=O (centres unmarked),132 to 133 °C
13,CC(C)N1CC(C(=O)c2c[nH]c(Cc3ccc(F)cc3)n2)=C(O)C1=O,220 °C
14,CCC(CC)N1CC(C(=O)c2ccc(Cc3ccc(F)cc3)o2)=C(O)C1=O,140 to 141 °C
15,CC(C)N1CC(c2cc(OCc3ccccc3)ncn2)=C(O)C1=O,177 to 178 °C
16,CC(C)N1CC(C(=O)c2cncn2Cc2ccc(F)cc2)=C(O)C1=O,156 to 159 °C
17,CCCC(O)CN1CC(C(=O)c2ccc(Cc3ccc(F)cc3)o2)=C(O)C1=O (centres unmarked),171 °C
18,COCn1ccc(C(=O)c2ccc(Cc3ccc(F)cc3)o2)c(O)c1=O,128 to 130 °C
19,O=C1NCC(C(=O)c2ccc(Cc3ccc(F)cc3)o2)=C1O,178 to 179 °C
20,O=C(C1=C(O)C(=O)N(CCO)C1)c1occc1Cc1ccc(F)cc1,195 to 196 °C
21,CN1CC(C(=O)c2c[nH]cc2Cc2ccc(F)cc2)=C(O)C1=O,265 to 267 °C
22,COC(=O)c1cc(=O)c(O)c(C(=O)c2ccc(Cc3ccc(F)cc3)o2)o1,174 to 176 °C
23,Cc1cc(Cc2ccc(F)cc2)c(C(=O)C2=C(O)C(=O)N(C(C)C)C2)o1,125 to 127 °C
24,COc1ccccc1Cc1ccc(C(=O)C2=C(O)C(=O)N(C(C)C)C2)o1,123 to 124 °C

row,SMILES,melting point
1,Cn1ncnc1-c1oc2c(Br)ccc(OCc3ccc(F)cc3)c2c(=O)c1O,220 to 223 °C
2,CC(C)N1CC(c2cc(CCc3ccccc3)ncn2)=C(O)C1=O,229 to 231 °C
3,CC(C)N1CC(c2cnc(Oc3ccc(F)cc3)cn2)=C(O)C1=O,227 to 229 °C
4,CC(C)(C)c1cc(Cc2ccc(F)cc2)c(C(=O)C2=C(O)C(=O)N(C3CC3)C2)o1,148 to 150 °C
5,CN1CC(c2cc(CCc3ccccc3)cnn2)=C(O)C1=O,203 to 205 °C
6,CN1CC(c2ccc(Oc3ccccc3)nn2)=C(O)C1=O,220 to 225 °C
7,O=C(C1=C(O)C(=O)N(CC(O)CO)C1)c1ccc(Cc2ccc(F)cc2)o1 (centres unmarked),119 to 120 °C
8,CCOC(=O)c1oc2ccc(OCc3ccc(F)cc3)cc2c(=O)c1O,190 to 192 °C
9,CC(C)N1CC(c2nccc(CCc3ccccc3)n2)=C(O)C1=O,126 to 127 °C
10,CN(C)C(=O)c1cc(OCc2ccc(F)cc2)c2c(=O)c(O)c(-c3ncnn3C)oc2c1,227 to 229 °C
11,CN1CC(c2cnc(Oc3ccc(F)cc3)cn2)=C(O)C1=O,237 to 238 °C
12,Cn1c(-c2nnc(Cc3ccc(F)cc3)o2)c(O)c(=O)c2ccccc21,222 °C
13,CC(C)N1CC(c2ccc([S+]([O-])c3ccc(F)cc3)cn2)=C(O)C1=O (centres unmarked),205 to 207 °C
14,Cc1ccc(-c2cc(Cc3ccc(F)cc3)c(C(=O)C3=C(O)C(=O)N(C)C3)o2)cc1,242 to 245 °C
15,CC(C)N1CC(c2ncc(Cc3ccc(F)cc3)s2)=C(O)C1=O,212 to 214 °C
16,CN1CC(C(=O)c2oc(Cc3ccc(F)cc3)cc2Cc2ccc(F)cc2)=C(O)C1=O,157 to 160 °C
17,CN1CC(C(=O)c2oc(C(C)(C)C)cc2Cc2ccc(F)cc2)=C(O)C1=O,179 to 181 °C
18,O=C(c1ccc(Cc2ccc(F)cc2)o1)c1cc[nH]c(=O)c1O,229 to 231 °C
19,CC(C)N1CC(C(=O)c2ccc(Cc3ccccc3)o2)=C(O)C1=O,162 to 163 °C
20,CN1CC(c2ccc([S+]([O-])c3ccc(F)cc3)cn2)=C(O)C1=O (centres unmarked),228 to 230 °C
21,CC(C)c1ccccc1COc1cc(C2=C(O)C(=O)N(C)C2)ncn1,240 to 241 °C
22,CN1CC(C(=O)c2ncc(Cc3ccc(F)cc3)s2)=C(O)C1=O,230 to 231 °C
23,O=c1c(O)c(-c2nc[nH]n2)oc2cccc(OCc3ccc(F)cc3)c12,254 to 256 °C
24,CC(C)N1CC(c2ccc(Oc3ccc(F)cc3)nn2)=C(O)C1=O,204 to 206 °C

row,SMILES,melting point
1,CC(C)N1CC(C(=O)c2oc(Cc3ccc(F)cc3)cc2Cc2ccc(F)cc2)=C(O)C1=O,159 to 161 °C
2,CN1CC(C(=O)c2cnn(Cc3ccc(F)cc3)c2)=C(O)C1=O,150 to 151 °C
3,O=C(c1ccc(Cc2ccc(F)cc2)o1)c1oc(C(=O)N2CCCCC2)cc(=O)c1O,146 to 148 °C
4,CN1CC(C(=O)c2ccc(Cc3ccc(F)cc3)[nH]2)=C(O)C1=O,221 to 223 °C
5,Cn1ncnc1-c1oc2cc(C(=O)O)cc(OCc3ccc(F)cc3)c2c(=O)c1O,280 to 282 °C
6,CN1CC(C(=O)c2cccn2Cc2ccc(F)cc2)=C(O)C1=O,150 to 151 °C
7,CN1CC(c2ncc(CCc3ccc(F)cc3)cn2)=C(O)C1=O,158 to 160 °C
8,CC(C)N1CC(c2ccc(Oc3ccccc3)nn2)=C(O)C1=O,203 to 205 °C
9,CN1CC(C(=O)c2cc(C(=O)O)c(Cc3ccc(F)cc3)o2)=C(O)C1=O,255 to 258 °C (dec.)
10,CC(O)CN1CC(C(=O)c2ccc(Cc3ccc(F)cc3)o2)=C(O)C1=O (centres unmarked),172 °C
11,CN1CC(C(=O)c2cc(Cc3ccc(F)cc3)co2)=C(O)C1=O,143 to 145 °C
12,COCCN1CC(C(=O)c2ccc(Cc3ccc(F)cc3)o2)=C(O)C1=O,105 to 106 °C
13,CN1CC(C(=O)c2cc(C(=O)NCc3ccccc3)c(Cc3ccc(F)cc3)o2)=C(O)C1=O,181 to 184 °C
14,O=C1C(O)=C(c2cc(CCc3ccccc3)ncn2)CN1Cc1ccccc1,222 to 223 °C
15,CC(C)N1CC(C(=O)c2cn(Cc3ccc(F)cc3)cn2)=C(O)C1=O,224 to 226 °C
16,CC(C)Oc1cc(F)ccc1Cc1ccc(C(=O)C2=C(O)C(=O)N(C(C)C)C2)o1,98 to 100 °C
17,COCNC(=O)c1cc(OCc2ccc(F)cc2)c2c(=O)c(O)c(-c3ncnn3C)oc2c1,220 to 221 °C
18,N#Cc1cc(=O)c(O)c(C(=O)c2ccc(Cc3ccc(F)cc3)o2)o1,190 to 194 °C (dec.)
19,CN1CC(C(=O)c2oc(C(=O)N3CCOCC3)cc2Cc2ccc(F)cc2)=C(O)C1=O,209 to 211 °C (dec.)
20,CC(C)N1CC(c2cnc(Cc3ccc(F)cc3)cn2)=C(O)C1=O,207 to 209 °C
21,CN1CC(C(=O)c2nc(Cc3ccc(F)cc3)co2)=C(O)C1=O,209 to 210 °C
22,COc1cc(Cc2ccc(C(=O)C3=C(O)C(=O)N(C)C3)o2)ccc1F,164 to 166 °C
23,CN1CC(C(=O)c2ncoc2Cc2ccc(F)cc2)=C(O)C1=O (as salt: salt),257 °C
